US20150105252A1, “SUBSTITUTED PYRAZOLES AS HERBICIDES” (E I DU PONT DE NEMOURS AND COMPANY, priority 2013, published 2015)

Key:
barnyardgrass [1] = experiment: Test A preemergence; format: in vivo, Echinochloa crus-galli; conditions: 0 to 100 scale
How it was run: (§1)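 Growth medium: loam soil blended with sand. Preemergence treatment used a directed soil spray right after planting; postemergence treatment targeted seedlings at one to two leaves (2–10 cm height). Response was judged by eye relative to untreated plants about 10 days later on a 0–100 control scale.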

velvetleaf [2] = experiment: Test A preemergence; format: in vivo, Abutilon theophrasti; conditions: 0 to 100 scale
How it was run: as §1

foxtail, giant [3] = experiment: Test A postemergence; format: in vivo, Setaria faberii
How it was run: as §1

wheat [4] = experiment: Test A postemergence; format: in vivo, Triticum aestivum
How it was run: as §1

foxtail, giant [5] = experiment: Test A preemergence; format: in vivo, Setaria faberii; conditions: 0 to 100 scale
How it was run: as §1

crabgrass, large [6] = experiment: Test A postemergence; format: in vivo, Digitaria sanguinalis
How it was run: as §1

ducksalad = experiment: Test C flooded paddy test; format: in vivo, Heteranthera limosa; conditions: Flood
Excerpt: (§2) At time of treatment, test pots were flooded to 3 cm above the soil surface, treated by application of test compounds directly to the paddy water, and then maintained at that water depth for the duration of the test. Treated plants and controls were maintained in a greenhouse for 13 to 15 days, after which time all species were compared to controls and visually evaluated. […] A dash (-) response means no test result.

crabgrass, large [7] = experiment: Test A preemergence; format: in vivo, Digitaria sanguinalis; conditions: 0 to 100 scale
How it was run: as §1

wheat [8] = experiment: Test A preemergence; format: in vivo, Triticum aestivum; conditions: 0 to 100 scale
How it was run: as §1

barnyardgrass [9] = experiment: Test C flooded paddy test; format: in vivo, Echinochloa crus-galli; conditions: Flood
Excerpt: as §2

sedge, umbrella = experiment: Test C flooded paddy test; format: in vivo, Cyperus difformis; conditions: Flood
Excerpt: as §2

morningglory [10] = experiment: Test A preemergence; format: in vivo, Ipomoea spp.; conditions: 0 to 100 scale
How it was run: as §1

rice = experiment: Test C flooded paddy test; format: in vivo, Oryza sativa; conditions: Flood
Excerpt: as §2

morningglory [11] = experiment: Test A postemergence; format: in vivo, Ipomoea spp.
How it was run: as §1

corn [12] = experiment: Test A postemergence; format: in vivo, Zea mays
How it was run: as §1

barnyardgrass [13] = experiment: Test A postemergence; format: in vivo, Echinochloa crus-galli; conditions: Postemergence
How it was run: as §1

corn [14] = experiment: Test A preemergence; format: in vivo, Zea mays; conditions: 0 to 100 scale
How it was run: as §1

pigweed [15] = experiment: Test A postemergence; format: in vivo, Amaranthus retroflexus
How it was run: as §1

velvetleaf [16] = experiment: Test A postemergence; format: in vivo, Abutilon theophrasti
How it was run: as §1

pigweed [17] = experiment: Test A preemergence; format: in vivo, Amaranthus retroflexus; conditions: 0 to 100 scale
How it was run: as §1

[18] = Preemergence, 500 g ai/ha, 0 no effect, 100 complete control
[19] = preemergence, 125 g ai/ha, visual injury, approx. 10 days
[20] = Postemergence, 500 g ai/ha, visual rating after approx. 10 days, 0 to 100 scale (0 no effect, 100 complete control)
[21] = postemergence, 125 g ai/ha, about 10 days, visual rating on 0 to 100 scale (0 no effect, 100 complete control)
[22] = 62 g ai/ha, scale 0 to 100 (0 no effect, 100 complete control)
[23] = Preemergence, 1000 g ai/ha, 0 no effect, 100 complete control
[24] = Postemergence, 1000 g ai/ha, visual rating after approx. 10 days, 0 to 100 scale (0 no effect, 100 complete control)
[25] = 31 g ai/ha, scale 0 to 100 (0 no effect, 100 complete control)
[26] = 1000 g ai/ha, visual rating after approx. 10 days, 0 to 100 scale (0 no effect, 100 complete control)

Cc1cc(C(=O)NCC(F)(F)F)nn1Cc1cccc(OC(F)(F)F)c1 [Compound 5]
100: Crabgrass, Large plant response rating (crabgrass, large [7]; [18]) | Morningglory plant response rating (morningglory [11]; [20]) | Pigweed plant response rating (pigweed [17]; [18])
60: Barnyardgrass plant response rating (barnyardgrass [1]; [18]) | Foxtail, Giant plant response rating (foxtail, giant [3]; [20]) | Plant response rating, Ducksalad (ducksalad; 250 g ai/ha, scale 0 to 100) | Velvetleaf plant response rating (velvetleaf [16]; [20])
20: Velvetleaf plant response rating (velvetleaf [2]; [18]) | Crabgrass, Large plant response rating (crabgrass, large [7]; [19]) | Velvetleaf plant response rating (velvetleaf [16]; [21])
90: Pigweed plant response rating (pigweed [15]; [20])
10: Foxtail, Giant plant response rating (foxtail, giant [3]; [21]) | Wheat plant response rating (wheat [4]; [20]) | Foxtail, Giant plant response rating (foxtail, giant [5]; [19]) | Crabgrass, Large plant response rating (crabgrass, large [6]; [21]) | Corn plant response rating (corn [12]; [21]) | Barnyardgrass plant response rating (barnyardgrass [13]; 125 g ai/ha, 0 to 100 scale, 0 no effect, 100 complete control) | Pigweed plant response rating (pigweed [17]; [19])
70: Foxtail, Giant plant response rating (foxtail, giant [5]; [18]) | Crabgrass, Large plant response rating (crabgrass, large [6]; [20])
75: Plant response rating, Sedge, Umbrella (sedge, umbrella; 250 g ai/ha, scale 0 to 100)
50: Plant response rating, Sedge, Umbrella (sedge, umbrella; [22]) | Pigweed plant response rating (pigweed [15]; [21])
0: Barnyardgrass plant response rating (barnyardgrass [1]; [19]) | Velvetleaf plant response rating (velvetleaf [2]; [19]) | Wheat plant response rating (wheat [4]; [21]) | Plant response rating, Ducksalad (ducksalad; [22]) | Wheat plant response rating (wheat [8]; [19]) | Plant response rating, Barnyardgrass (barnyardgrass [9]; [22]) | Plant response rating, Barnyardgrass (barnyardgrass [9]; 250 g ai/ha, scale 0 to 100) | Morningglory plant response rating (morningglory [10]; [19]) | Plant response rating, Rice (rice; [22]) | Plant response rating, Rice (rice; 250 g ai/ha, scale 0 to 100) | Corn plant response rating (corn [14]; [18]) | Corn plant response rating (corn [14]; [19])
40: Morningglory plant response rating (morningglory [10]; [18]) | Morningglory plant response rating (morningglory [11]; [21]) | Corn plant response rating (corn [12]; [20]) | Barnyardgrass plant response rating (barnyardgrass [13]; 500 g ai/ha, visual rating after approx. 10 days, 0 to 100 scale (0 no effect, 100 complete control))

CCCNC(=O)c1cc(CC)n(Cc2cccc(C(F)(F)F)c2)n1 [Compound 16]
0: Plant response rating, Barnyardgrass (barnyardgrass [9]; [25]) | Plant response rating, Barnyardgrass (barnyardgrass [9]; [22]) | Plant response rating, Barnyardgrass (barnyardgrass [9]; 125 g ai/ha, scale 0 to 100) | Plant response rating, Rice (rice; [25]) | Plant response rating, Rice (rice; [22])
85: Plant response rating, Ducksalad (ducksalad; [22]) | Plant response rating, Sedge, Umbrella (sedge, umbrella; [22])
95: Plant response rating, Ducksalad (ducksalad; 125 g ai/ha, scale 0 to 100)
30: Velvetleaf plant response rating (velvetleaf [2]; [23])
25: Plant response rating, Rice (rice; 125 g ai/ha, scale 0 to 100) | Plant response rating, Rice (rice; 250 g ai/ha, scale 0 to 100)
60: Barnyardgrass plant response rating (barnyardgrass [13]; [26])
80: Foxtail, Giant plant response rating (foxtail, giant [3]; [24]) | Crabgrass, Large plant response rating (crabgrass, large [6]; [24])
90: Barnyardgrass plant response rating (barnyardgrass [1]; [23]) | Pigweed plant response rating (pigweed [15]; [24])
70: Plant response rating, Sedge, Umbrella (sedge, umbrella; [25])
20: Plant response rating, Barnyardgrass (barnyardgrass [9]; 250 g ai/ha, scale 0 to 100)
100: Foxtail, Giant plant response rating (foxtail, giant [5]; [23]) | Plant response rating, Ducksalad (ducksalad; 250 g ai/ha, scale 0 to 100) | Crabgrass, Large plant response rating (crabgrass, large [7]; [23]) | Plant response rating, Sedge, Umbrella (sedge, umbrella; 125 g ai/ha, scale 0 to 100) | Plant response rating, Sedge, Umbrella (sedge, umbrella; 250 g ai/ha, scale 0 to 100) | Morningglory plant response rating (morningglory [10]; [23]) | Morningglory plant response rating (morningglory [11]; [24]) | Velvetleaf plant response rating (velvetleaf [16]; [24]) | Pigweed plant response rating (pigweed [17]; [23])
50: Wheat plant response rating (wheat [4]; [24]) | Plant response rating, Ducksalad (ducksalad; [25]) | Wheat plant response rating (wheat [8]; [23]) | Corn plant response rating (corn [12]; [24]) | Corn plant response rating (corn [14]; [23])

CCCc1cc(C(=O)NCC(F)(F)F)nn1Cc1cccc(OC(F)(F)F)c1 [Compound 32]
10: Plant response rating, Ducksalad (ducksalad; [25])
70: Barnyardgrass plant response rating (barnyardgrass [1]; [23]) | Crabgrass, Large plant response rating (crabgrass, large [6]; [24]) | Plant response rating, Ducksalad (ducksalad; 250 g ai/ha, scale 0 to 100)
30: Velvetleaf plant response rating (velvetleaf [2]; [23]) | Plant response rating, Sedge, Umbrella (sedge, umbrella; [22]) | Corn plant response rating (corn [12]; [24])
40: Barnyardgrass plant response rating (barnyardgrass [13]; [26])
80: Plant response rating, Sedge, Umbrella (sedge, umbrella; 250 g ai/ha, scale 0 to 100) | Velvetleaf plant response rating (velvetleaf [16]; [24])
50: Foxtail, Giant plant response rating (foxtail, giant [3]; [24]) | Plant response rating, Ducksalad (ducksalad; 125 g ai/ha, scale 0 to 100) | Plant response rating, Sedge, Umbrella (sedge, umbrella; 125 g ai/ha, scale 0 to 100) | Morningglory plant response rating (morningglory [10]; [23])
100: Foxtail, Giant plant response rating (foxtail, giant [5]; [23]) | Crabgrass, Large plant response rating (crabgrass, large [7]; [23]) | Morningglory plant response rating (morningglory [11]; [24]) | Pigweed plant response rating (pigweed [15]; [24]) | Pigweed plant response rating (pigweed [17]; [23])
0: Wheat plant response rating (wheat [8]; [23]) | Plant response rating, Barnyardgrass (barnyardgrass [9]; [25]) | Plant response rating, Barnyardgrass (barnyardgrass [9]; [22]) | Plant response rating, Barnyardgrass (barnyardgrass [9]; 125 g ai/ha, scale 0 to 100) | Plant response rating, Barnyardgrass (barnyardgrass [9]; 250 g ai/ha, scale 0 to 100) | Plant response rating, Rice (rice; [25]) | Plant response rating, Rice (rice; [22]) | Plant response rating, Rice (rice; 125 g ai/ha, scale 0 to 100) | Plant response rating, Rice (rice; 250 g ai/ha, scale 0 to 100) | Corn plant response rating (corn [14]; [23])
20: Wheat plant response rating (wheat [4]; [24]) | Plant response rating, Ducksalad (ducksalad; [22]) | Plant response rating, Sedge, Umbrella (sedge, umbrella; [25])
